In this experiment the target is T1, α4β7 (Homo sapiens, UniProt P13612+P26010).
T1 construct: endogenous in cells; host or cells: RPMI 8866 cells
T1 sequence (P13612 34-1032): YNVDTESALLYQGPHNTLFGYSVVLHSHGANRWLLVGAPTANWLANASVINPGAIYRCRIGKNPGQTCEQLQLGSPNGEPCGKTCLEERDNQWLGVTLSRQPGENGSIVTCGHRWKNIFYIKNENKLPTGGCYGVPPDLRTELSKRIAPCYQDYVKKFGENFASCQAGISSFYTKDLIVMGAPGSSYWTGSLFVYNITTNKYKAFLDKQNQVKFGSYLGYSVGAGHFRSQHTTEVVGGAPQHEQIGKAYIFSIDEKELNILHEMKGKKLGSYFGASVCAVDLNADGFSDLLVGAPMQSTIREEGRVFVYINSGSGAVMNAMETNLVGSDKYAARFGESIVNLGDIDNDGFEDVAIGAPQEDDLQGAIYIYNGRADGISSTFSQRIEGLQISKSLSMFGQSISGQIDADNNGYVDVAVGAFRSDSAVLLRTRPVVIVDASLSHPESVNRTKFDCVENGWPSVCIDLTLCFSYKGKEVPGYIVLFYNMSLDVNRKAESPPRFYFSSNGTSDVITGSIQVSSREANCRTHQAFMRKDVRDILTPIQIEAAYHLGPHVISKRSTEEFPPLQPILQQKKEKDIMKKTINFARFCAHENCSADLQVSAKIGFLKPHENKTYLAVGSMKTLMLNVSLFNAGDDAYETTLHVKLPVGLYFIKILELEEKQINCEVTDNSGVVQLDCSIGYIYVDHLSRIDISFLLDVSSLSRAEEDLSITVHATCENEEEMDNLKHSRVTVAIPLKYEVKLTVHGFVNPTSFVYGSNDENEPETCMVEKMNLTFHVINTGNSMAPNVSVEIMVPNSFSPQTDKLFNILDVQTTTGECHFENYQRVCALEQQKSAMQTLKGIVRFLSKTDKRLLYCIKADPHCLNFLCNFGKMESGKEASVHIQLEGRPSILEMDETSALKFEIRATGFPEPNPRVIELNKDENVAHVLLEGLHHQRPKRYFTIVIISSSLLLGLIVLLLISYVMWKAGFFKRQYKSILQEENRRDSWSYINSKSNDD
T1 sequence (P26010 20-798): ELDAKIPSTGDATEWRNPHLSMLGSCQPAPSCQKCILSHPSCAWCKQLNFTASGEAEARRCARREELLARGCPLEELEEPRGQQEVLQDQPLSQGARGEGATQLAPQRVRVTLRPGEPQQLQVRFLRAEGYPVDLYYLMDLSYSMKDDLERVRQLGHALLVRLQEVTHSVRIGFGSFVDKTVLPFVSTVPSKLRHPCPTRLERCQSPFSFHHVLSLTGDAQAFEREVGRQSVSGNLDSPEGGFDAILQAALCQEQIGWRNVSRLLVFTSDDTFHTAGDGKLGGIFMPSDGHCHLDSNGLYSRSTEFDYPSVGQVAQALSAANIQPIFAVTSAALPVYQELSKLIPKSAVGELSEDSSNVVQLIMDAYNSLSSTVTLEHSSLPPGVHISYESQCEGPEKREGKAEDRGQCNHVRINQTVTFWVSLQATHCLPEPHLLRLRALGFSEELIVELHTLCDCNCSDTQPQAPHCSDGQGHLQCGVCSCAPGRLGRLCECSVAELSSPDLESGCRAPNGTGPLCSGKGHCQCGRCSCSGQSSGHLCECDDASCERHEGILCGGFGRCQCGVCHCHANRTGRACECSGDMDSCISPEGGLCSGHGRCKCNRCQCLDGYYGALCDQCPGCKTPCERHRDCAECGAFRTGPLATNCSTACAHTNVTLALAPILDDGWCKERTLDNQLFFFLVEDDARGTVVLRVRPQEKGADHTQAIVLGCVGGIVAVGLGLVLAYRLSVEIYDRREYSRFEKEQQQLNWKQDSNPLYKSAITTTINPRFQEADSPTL
The experiment is described as follows: Cell adhesion assay, RPMI8866 cells on MAdCAM coated plates (Example 7). Type of experiment: cell-based. The conditions noted are these: RPMI8866 cells adhering to recombinant human MAdCAM; Table 4 comparative compounds; read-out: CA Assay (Example 7). Here is the method:
Three in vitro assays were used to examine the α4β7 mechanistic process used by cells: 1) ligand:receptor affinity, 2) the avidity of those interactions on a cell's surface, and 3) how those interactions fare under an imposing force. In Example 5, a Fluorescence Polarization (FP) assay is used to measure compound activity through binding competition with the fluorescein-labeled peptide. In Example 6, the potency of compounds against α4β7 is measured in the cell-based ligand binding assay (LBA), using RPMI 8866 cells incubated with the compound samples in competition with soluble MAdCAM-1 ligand. In Example 7, activity of compounds is evaluated in a cell adhesion assay that mechanistically tests what occurs in vivo when trafficking cells utilize α4β7 to adhere to MAdCAM-1 expressing HEVs of the gut during the extravasation process. In the cell adhesion assay of Example 7, a MAdCAMI1-(Fc) is coated on plastic, and α4β7 expressing cells (RPMI-8866) are allowed to adhere to the coated surface in the presence of the test compounds. Next, the force of washing with buffer is applied to cells thereby testing the strength of that adhesion. Unattached cells are removed and the remaining adherent cells are quantified.
Example 7 describes a cell adhesion assay.
To each well of a 96 well plate, 100 ug of recombinant human MAdCAM in 100 ul PBS is added and incubated overnight at 4° C. After incubation MAdCAM is removed by aspiration and 200 ul of PBS+1% BSA is added to block the plate for 2 hours at 37° C. and 5% CO2. During this incubation dilution curves of compound are made in 100% DMSO in 96 well V bottom plates. 1.75 ul of diluted compounds are then transferred to a new 96 well U bottom plate containing 20 ul of assay media (phosphate free DMEM+25 mM HEPES+1% BSA). To this an additional 155 ul of assay media is added with mixing by pipetting up and down. This mixture is allowed to incubate for 15 minutes at 37° C. and 5% CO2. After incubation 175 ul of assay media containing 2e6/mL RPMI8866 cells is added to compound containing wells without mixing and plate is allowed to incubate for another 15 minutes at 37° C. and 5% CO2. During this incubation MAdCAM coated plates are removed from incubator and washed twice with 200 ul PBS+0.1% BSA. […] This plate is then incubated at 37° C. and 5% CO2 for 1 hour. After incubation plates are washed twice with 200 ul and once with 50 ul of phenol free RPMI+1% BSA. A final 50 ul of phenol free RPMI+1% BSA is added to wells after last wash. Next 50 ul of Promega cell titer glow is added to the wells. Plate is incubated on shaker for 2 minutes at 200 RPM followed by another 8 minutes off shaker before having the luminescence read on a Biotek Citation 5 plate reader. Raw data is converted to % inhibition compared to bottom of curve and analyzed using a 4-parameter non linear curve in Prism to determine IC50 and IC90.
On to `Cc1cccc(C)c1-c1cccc([C@H](CC(=O)O)NC(=O)[C@H](CC(C)C)n2cc(CN3CC(F)C3)ccc2=O)c1` [drawing 589], for which the IC50 is > 50 nM.

For `Cc1cccc(C)c1-c1cccc([C@H](CC(=O)O)NC(=O)[C@H](CC(C)C)n2cc(CN3CC(F)C3)ccc2=O)c1` [drawing 594], the IC50 was > 50 nM.

In the case of `Cc1cccc(C)c1-c1cccc([C@H](CC(=O)O)NC(=O)[C@H](CC(C)C)n2cc(CN3CC(F)C3)ccc2=O)c1` [drawing 599], the IC50 is < 5 nM.

For `Cc1cccc(C)c1-c1cccc([C@H](CC(=O)O)NC(=O)[C@H](CC(C)C)n2cc(CN3CC(F)C3)ccc2=O)c1` [drawing 604], the IC50 is > 50 nM.

(Values after patent US11104661B1, “Inhibiting human integrin (α-4) (β-7)” (Morphic Therapeutic, Inc., priority 2019, dated 2021).)
